Source: patent US20240246916A1, “7-NITRO-8-HYDROXYQUINOLINE DERIVATIVES, PREPARATION METHOD THEREFORE AND MEDICAL USE THEREOF” (Jiangsu Yahong Meditech Co., Ltd., priority 2021, published 2024)
pIC50: −log10 of the molar value. Converted amounts (≈) assume the structure as drawn.

Columns and labels:
Type in all cases: cell-based
[1] = test system: Mouse prostate cancer cell line RM1; assay: Inhibitory activity on cancer cells, CellTiter-Glo viability, RM1; conditions: 72 hours treatment
Protocol: (§1) HUVEC (purchased from Allcells Biological Technology (Shanghai) Co., Ltd.); UM-UC-3 (ATCC); LNCaP (ATCC); RM-1 (purchased from Nanjing Cobioer Biosciences Co., Ltd.) (1) On the first day, the cells were seeded in a 96-well plate, and the previous medium was poured off. 5 mL of DPBS was added to wash the cells, and then removed by a pipette and discarded. Then, 1 mL of trypsin (0.25%) was added, and the plate was placed in a cell culture incubator at 37 °C, 5% CO2 for digestion, and taken out after about 2 to 5 minutes. New corresponding medium was added, and pipetted to resuspend the cells evenly, and the cells were then counted with an automated cell counter. Regarding HUVEC, the medium used was endothelial cell complete medium; regarding UM-UC-3, the medium used was 89 v % EMEM+10 v % fetal bovine serum+1 v % penicillin-streptomycin double anti-body; regarding LNcaP, the medium used was 89 v % RPM11640+10 v % fetal bovine serum+1 v % penicillin-streptomycin double anti-body; and regarding RM1, the medium used was 89 v % DMEM+10 v % fetal bovine serum+1 v % penicillin-streptomycin double anti-body. (2) HUVEC cells were seeded in columns 1 to 11 of a 96-well plate (Corning, Cat. No. 3610) at a density of 2000 cells per well in 100 μL of medium, and the medium free of cell was added to the wells of column 12. The other three types of cells were also seeded, wherein UM-UC-3 and RM-1 cells were seeded at a density of 3000 cells per well, and LNCap cells were seeded at a density of 5000 cells per well. Then, the plate was placed in an incubator at 37° C., 5% CO2 for 24 hours. (3) On the second day, the compounds of the present invention and the reference drug nitroxoline (obtained according to the preparation method disclosed in the prior art) were diluted in gradient (2.5 folds, started at 100 μmol) to obtain 8 dose points (there were a total of 8 columns of wells; the first column of wells had the highest concentration, the concentration decreased in turn, and the last column of wells had the lowest concentration). 10 μL of the compound diluted in gradient was added to the 100 μL of cells in column 1 to column 10 with an 8-channel pipette. 10 μL of the corresponding medium containing 0.33 v % DMSO was added to column 11 and column 12. The plate was incubated in an incubator at 37° C., 5% CO2 for 72 hours (note: column 11 was used as MAX well with cells and no compounds; and column 12 was used as MIN well with no cells and no compounds). (4) After treating with the compounds of the present invention for 72 hours, the cell viability detection reagents in the above CellTiter-Glo® assay kit were added to the 96-well plate at 50 μL per well according to the instructions. The plate was shaken on a shaker in the dark for 5 to 10 minutes, and then the cell activity was determined by a multifunctional microplate reader. Finally, the growth inhibition of the compounds of the present invention on the cells was plotted by XLFIT 5.3 software, and the IC50 values of the compounds of the present invention were calculated.

[2] = test system: Bladder cancer cell line UM-UC-3; assay: Inhibitory activity on cancer cells, CellTiter-Glo viability, UM-UC-3; conditions: Homo sapiens, UMUC3, 72 hours treatment
Protocol: as §1

[3] = test system: Prostate cancer cell line LNcaP; assay: Inhibitory activity on cancer cells, CellTiter-Glo viability, LNcaP; conditions: Homo sapiens, 72 hours treatment
Protocol: as §1

[4] = test system: Endothelial cell line HUVEC; assay: Inhibitory activity on cells, CellTiter-Glo viability, HUVEC; conditions: Homo sapiens, 72 hours treatment
Protocol: as §1

[5] = test system: Escherichia coli (carbapenem-resistant clinical isolate; ATCC25922); assay: MIC by micro broth dilution (CLSI), Escherichia coli; conditions: Escherichia coli; for MIC50 / MIC90: ATCC25922, Clinical strain; for MIC50: read-out: MIC50; for MIC90: read-out: MIC90; for MIC: Standard strain ATCC25922, read-out: MIC
In short: (§2)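 MICs against clinical resistant and sensitive isolates and reference strains determined in CAMHB following CLSI microdilution, incubating 20 h at 35±2 °C in air. Final inoculum 10^5 CFU/mL; DMSO-dissolved compound tested over 0.06–128 mg/L; CLSI M100 (2019) criteria applied.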

[6] = test system: Acinetobacter baumannii (carbapenem-resistant clinical isolates; ATCC19606); assay: MIC by micro broth dilution (CLSI), Acinetobacter baumannii; conditions: Acinetobacter baumannii; for MIC50 / MIC90: ATCC19606, Clinical strain; for MIC50: read-out: MIC50; for MIC90: read-out: MIC90; for MIC: Standard strain ATCC19606, read-out: MIC
In short: as §2

[7] = test system: Staphylococcus aureus (methicillin-resistant and sensitive clinical isolates; ATCC29213); assay: MIC by micro broth dilution (CLSI), Staphylococcus aureus; conditions: for MIC50 / MIC90: Clinical strain; for MIC50: read-out: MIC50; for MIC90: read-out: MIC90; for MIC: Standard strain ATCC29213, read-out: MIC
In short: as §2

Row | pIC50 [1] | pIC50 [2] | pIC50 [3] | MIC50 [5] | MIC90 [5] | MIC [5] | MIC50 [6] | MIC90 [6] | MIC [6] | MIC50 [7] | MIC90 [7] | MIC [7] | SMILES | pIC50 [4]
1 | 5.13 | 5.15 | 5.70 | – | – | – | – | – | – | – | – | – | O=[N+]([O-])c1cc(Cl)c2c(N3CCC4(CC3)CC4)ccnc2c1O [Example 63, 5-Chloro-7-nitro-4-(6-azaspiro[2.5]octan-6-yl)quinolin-8-ol] | 5.74
2 | 5.63 | 6.31 | 6.26 | – | – | – | – | – | – | – | – | – | CCC(C)OC(=O)N1CCN(c2ccnc3c(O)c([N+](=O)[O-])cc(Cl)c23)CC1 (stereo not drawn) [Example 57, (1-Methyl)propyl 4-(5-chloro-8-hydroxy-7-nitroquinolin-4-yl)piperazine-1-carboxylate] | 6.33
3 | 5.69 | 5.03 | 5.75 | – | – | – | – | – | – | – | – | – | COc1c(C2CC2)cnc2c(O)c([N+](=O)[O-])ccc12 [Example 75, 3-cyclopropyl-4-methoxy-7-nitroquinolin-8-ol] | 5.47
4 | < 4.00 | < 4.00 | < 4.00 | – | – | – | – | – | – | – | – | – | O=[N+]([O-])c1ccc2c(N3CC=CC3)ccnc2c1O [Example 23, 4-(2,5-Dihydro-1H-pyrrolyl)-7-nitroquinolin-8-ol] | < 4.00
5 | 5.27 | 5.39 | 5.98 | – | – | – | – | – | – | – | – | – | O=[N+]([O-])c1cc(Cl)c2c(C3CC3)ccnc2c1O [Example 49, 5-Chloro-4-cyclopropyl-7-nitroquinolin-8-ol] | 5.80
6 | 5.95 | 5.24 | 6.19 | – | – | – | – | – | – | – | – | – | O=[N+]([O-])c1cc(Cl)c2c(OC3CCCCC3)ccnc2c1O [Example 60, 5-Chloro-4-(cyclohexyloxy)-7-nitroquinolin-8-ol] | 6.15
7 | – | 5.21 | 5.06 | 128 µg/mL (≈ 465 µM) | 128 µg/mL (≈ 465 µM) | > 128 µg/mL | 128 µg/mL (≈ 465 µM) | > 128 µg/mL | > 128 µg/mL | 128 µg/mL (≈ 465 µM) | 128 µg/mL (≈ 465 µM) | 128 µg/mL (≈ 465 µM) | O=[N+]([O-])c1ccc2c(N3CCOCC3)ccnc2c1O [Example 14, 4-Morpholino-7-nitroquinolin-8-ol] | 4.96
8 | – | 5.05 | 5.41 | 16 µg/mL (≈ 59.5 µM) | 16 µg/mL (≈ 59.5 µM) | 32 µg/mL (≈ 119 µM) | 8 µg/mL (≈ 29.7 µM) | 8 µg/mL (≈ 29.7 µM) | 32 µg/mL (≈ 119 µM) | 8 µg/mL (≈ 29.7 µM) | 8 µg/mL (≈ 29.7 µM) | 8 µg/mL (≈ 29.7 µM) | O=[N+]([O-])c1ccc2c(Br)ccnc2c1O [Example 16, 4-Bromo-7-nitroquinolin-8-ol] | 5.09
9 | 5.17 | 5.36 | 5.48 | – | – | – | – | – | – | – | – | – | CC1CCCCN1c1ccnc2c(O)c([N+](=O)[O-])ccc12 (stereo not drawn) [Example 20, 4-(2-Methylpiperidinyl)-7-nitroquinolin-8-ol] | 5.25
10 | 6.04 | 5.59 | 6.05 | – | – | – | – | – | – | – | – | – | CC(C)OC(=O)N1CCN(c2ccnc3c(O)c([N+](=O)[O-])cc(Cl)c23)CC1 [Example 58, Isopropyl 4-(5-chloro-8-hydroxy-7-nitroquinolin-4-yl)piperazine-1-carboxylate] | 6.17
11 | 4.66 | 4.94 | 4.88 | – | – | – | – | – | – | – | – | – | O=[N+]([O-])c1cc(Cl)c2c(F)ccnc2c1O [Example 65, 5-Chloro-4-fluoro-7-nitroquinolin-8-ol] | 5.04
12 | – | 4.88 | 4.67 | 128 µg/mL (≈ 444 µM) | 128 µg/mL (≈ 444 µM) | 128 µg/mL (≈ 444 µM) | 128 µg/mL (≈ 444 µM) | 128 µg/mL (≈ 444 µM) | 128 µg/mL (≈ 444 µM) | 128 µg/mL (≈ 444 µM) | 128 µg/mL (≈ 444 µM) | 128 µg/mL (≈ 444 µM) | CN1CCN(c2ccnc3c(O)c([N+](=O)[O-])ccc23)CC1 [Example 18, 4-(4-Methylpiperazinyl)-7-nitroquinolin-8-ol] | 4.19
